Ends that are not written are not given here.
Test system: CT-26/KITENIN-V5 tumours
Assay: Syngeneic subcutaneous tumour model, CT-26/KITENIN-V5 cells in BALB/c mice
Type: in vivo, mouse
Conditions: CT-26/KITENIN-V5, KDIP 1 and 5 mg/kg intravenously every other day for 2 weeks, dose dependent
Method: The CT‐26 cell/syngeneic mouse model was used to investigate the in vivo effects of KDIP on colorectal tumourigenesis, as it is reported that a syngeneic mouse tumour model is good for testing the anticancer effects of candidate substances.[25], [26] Male Balb/c mice (5‐week old) were purchased from DaMul Science, Korea and acclimated for 1 week prior to subcutaneous injection of syngeneic CT‐26/EV (3 × 10^6) or CT‐26/KITENIN cells (1 × 10^6) into the dorsum. Tumour volume was calculated using the following equation: V = 1/2 × a × b […], where a and b are the longest and shortest diameters of the tumour (in millimetres), respectively. Tumour volume was measured every other day for 14 days to verify the effects of KDIP. […]
Effect of KAI1 C‐terminal interacting tetraspanin (KITENIN) dimerization‐interfering peptide (KDIP) on tumour growth and metastasis in in vivo mouse model of colorectal cancer (CRC). […] For the evaluation of metastasis, total fluorescence emitted from liver nodules expressing iRFP was measured and counted (left panel) or metastatic tumour growth was counted as nodules that migrated to the surface of the liver, and a metastatic score was obtained by multiplying it with size (middle panel). Metastatic score or total fluorescence is represented as mean ± SEM. […]

YARVRRRGPRRWRLVSDEAV [KDIP]
tumour volume (in words): significantly reduced
